Patent publication US6451254B1, “Sterilization of diffusion-restricted area by revaporizing the condensed vapor” (Ethicon, Inc., priority 1998, dated 2002)
Where two headings read alike, the source gives them in different places.

Columns and labels:
[1] = system: Bacillus stearothermophilus spores
From the text: The Petri dish contained a biological challenge consisting of 2.2×10^6 Bacillus stearothermophilus spores on a stainless steel coupon. A coupon was also placed in the center of each of the three lumens. The coupon in the Petri dish was used as a test of the effectiveness of the method at sterilizing the exterior of a device, and the coupons in the lumens were a test of the effectiveness of sterilizing the interior of the lumens. In the following experiment, the condensed hydrogen peroxide was revaporized multiple times. The following procedure was followed in the experiment. A tray containing the Petri dish and three lumens with inoculated blades was placed in a 173 L sterilization chamber, as in the other examples, and the chamber was evacuated to 0.4 torr. The experiment with multiple revaporizations was conducted as follows: 1. 3 grams of 59% hydrogen peroxide were introduced into the vaporizer. 2. The hydrogen peroxide was vaporized and introduced into the sterilization chamber over a period of 5 minutes. 3. The pressure was reduced to 4 torr for 5 minutes to revaporize the hydrogen peroxide. 4. The sterilization chamber was vented to 1 atmosphere pressure for 0.5 minutes to condense the vapor again. 5. The pressure in the sterilization chamber was reduced to 4 torr and maintained at a constant pressure of 4 torr for 14.5 minutes. The total cycle lasted 25 minutes.

[2] = system: Bacillus stearothermophilus spores; settings: 3 g of 59% hydrogen peroxide, 5 Minutes Vaporization
From the text: The Petri dish contained a biological challenge consisting of 2.2×10^6 Bacillus stearothermophilus spores on a stainless steel coupon. A coupon was also placed in the center of each of the three lumens. The coupon in the Petri dish was used as a test of the effectiveness of the method at sterilizing the exterior of a device, and the coupons in the lumens were a test of the effectiveness of sterilizing the interior of the lumens. In Example 2, the test of Example 1 with 3 g of 59% hydrogen peroxide was repeated with the addition of 20 minutes exposure time to the hydrogen peroxide vapor.

[3] = system: Bacillus stearothermophilus spores; settings: 3 g of 59 wt % hydrogen peroxide, 5 Minutes Vaporization and 20 Minutes Diffusion
From the text: (§1) The Petri dish contained a biological challenge consisting of 2.2×10^6 Bacillus stearothermophilus spores on a stainless steel coupon. A coupon was also placed in the center of each of the three lumens. The coupon in the Petri dish was used as a test of the effectiveness of the method at sterilizing the exterior of a device, and the coupons in the lumens were a test of the effectiveness of sterilizing the interior of the lumens.
In Example 3, the pressure in the sterilization chamber was reduced to 0.4 torr, a total of 3 g of 59 wt % hydrogen peroxide was placed in the vaporizer, and the hydrogen peroxide was vaporized and diffused into the sterilization chamber for 5 minutes. The hydrogen peroxide was then allowed to diffuse at various pressures for 20 minutes. The pressure in the sterilization chamber was at constant pressure by controlling the pressure with an automatic valve between the sterilization chamber and the vacuum pump.
The experiment on the first line of Table 5 is the control experiment, in which the hydrogen peroxide was vaporized into the chamber and allowed to diffuse with the valve between the sterilization chamber and the vacuum pump closed. The pressure in the sterilization chamber was 9.5 torr, which is higher than the vapor pressure of 43 mole % hydrogen peroxide/water solution at 20° C., the approximate temperature of the equipment in the sterilization chamber, as shown in Table 2.
In the experiments described on the following lines of Table 5, the 3 grams of 59 wt % hydrogen peroxide was vaporized for 5 minutes.
The pressure in the sterilization chamber was then reduced, and the condensed vapor was vaporized and allowed to diffuse at constant pressure for 20 minutes. The interior of the sterilization chamber was maintained at a constant pressure by the automatic valve between the sterilization chamber and the vacuum pump. The constant pressure in the sterilization chamber ranged from 7 torr to 1 torr.
In the examples on the following lines, the same procedure was followed, vaporizing 3 g of 59 wt % hydrogen peroxide for 5 minutes and diffusing at constant pressure for 20 minutes. The constant diffusion pressure ranged from 1 to 6 torr.

[4] = system: Bacillus stearothermophilus spores; settings: 3 g of 59 wt % hydrogen peroxide, 5 Minutes Vaporization and 20 Minutes Diffusion; remark: listed apart in the source
Method: as §1
In this example, the procedure of Example 3 was carried out, but the valve between the sterilization chamber and the vacuum pump was closed after the desired pressure was reached. In Example 3, constant pressure was maintained throughout the 20 minutes of diffusion.
The Petri dish and three lumens were placed in a tray in a 173 L sterilization chamber, and the chamber was evacuated to 0.4 torr. A total of 3 g of 59 wt % hydrogen peroxide was vaporized in the vaporizer and diffused into the sterilization chamber over a period of 5 minutes, and the pressure in the sterilization chamber was reduced to the desired value, and the valve between the sterilization chamber and the vacuum pump was closed. The hydrogen peroxide was then allowed to diffuse in the sterilization chamber for 20 minutes.

[5] = system: Bacillus stearothermophilus spores; settings: 3 g of 57% hydrogen peroxide, 5 Minutes Vaporization
From the text: The Petri dish contained a biological challenge consisting of 2.2×10^6 Bacillus stearothermophilus spores on a stainless steel coupon. A coupon was also placed in the center of each of the three lumens. The coupon in the Petri dish was used as a test of the effectiveness of the method at sterilizing the exterior of a device, and the coupons in the lumens were a test of the effectiveness of sterilizing the interior of the lumens. In Example 5, the Petri dish and three lumens were placed in a tray with 40 medical devices in the sterilization chamber, the chamber was evacuated to 0.4 torr, 3 g of 57% hydrogen peroxide were vaporized into the chamber over 5 minutes, and the chamber was vented to 1 atmosphere. The hydrogen peroxide was then allowed to diffuse for a total of 20 minutes, either at 1 atmosphere pressure or 4 torr. In the first experiment in Table 7, the sterilization chamber was vented to atmosphere after the hydrogen peroxide was vaporized into the sterilization chamber, and the hydrogen peroxide vapor was allowed to diffuse at 1 atmosphere for 19.5 minutes. […] The first experiment was the control experiment for the second experiment. In the second experiment in Table 7, the sterilization chamber was vented to atmosphere for 0.5 minutes, then the pressure in the sterilization chamber was reduced to 4 torr and controlled at that pressure for a total of 19.5 minutes.

[6] = system: Bacillus stearothermophilus spores; settings: 5 minutes vaporization, no revaporization
From the text: In Example 1, the following items were placed in a CSR-wrapped tray in a 173 L sterilization chamber: Open Petri dish 2.48 mm id×50 cm Teflon lumen 2.48 mm id×75 cm Teflon lumen 2.48 mm id×100 cm Teflon lumen 40 pieces of medical devices The Petri dish contained a biological challenge consisting of 2.2×10^6 Bacillus stearothermophilus spores on a stainless steel coupon. A coupon was also placed in the center of each of the three lumens. The coupon in the Petri dish was used as a test of the effectiveness of the method at sterilizing the exterior of a device, and the coupons in the lumens were a test of the effectiveness of sterilizing the interior of the lumens. Three experiments were performed in which 1, 2, and 3 g of 59 wt % hydrogen peroxide were introduced into the vaporizer after the chamber was evacuated to 0.4 torr and allowed to vaporize and diffuse into the chamber for 5 minutes.

[7] = 3 grams of 59% hydrogen peroxide, Cycle with Two-Vaporization Process: 5 minutes vaporization, 4 torr 5 minutes, vent 1 atmosphere 0.5 minutes, 4 torr 14.5 minutes
[8] = control: 5 Minutes Vaporization plus 20 Minutes Diffusion at 1 atm.
[9] = Reducing and controlling at 1 torr
[10] = Reducing and controlling at 2 torr
[11] = Reducing and controlling at 3 torr
[12] = Reducing and controlling at 4 torr
[13] = Reducing and controlling at 5 torr
[14] = Reducing and controlling at 6 torr
[15] = Reducing and controlling at 7 torr
[16] = Without pump-down, final pressure about 9.5 torr
[17] = Valve closed at 1 torr, final pressure about 1.7 torr
[18] = Valve closed at 2 torr, final pressure about 2.8 torr
[19] = 0.5 Minutes Vent Plus 19.5 Minutes Reducing and Controlling at 4 Torr
[20] = 0.5 Minutes Vent Plus 19.5 Minutes at 1 Atm.

Compound: OO [hydrogen peroxide]
- Sterility Results In 2.48 mm × 50 cm lumen [1, 7]: −
- Sterility Results In 2.48 mm × 75 cm lumen [1, 7]: −
- Sterility Results In 2.48 mm × 100 cm lumen [1, 7]: −
- Sterility Results In Open Petri Dish [1, 7]: −
- Sterility Results In 2.48 mm × 50 cm lumen [1, 8]: −
- Sterility Results In 2.48 mm × 75 cm lumen [1, 8]: +
- Sterility Results In 2.48 mm × 100 cm lumen [1, 8]: +
- Sterility Results In Open Petri Dish [1, 8]: −
- Sterility Results In 2.48 mm × 50 cm lumen ([2]; Diffusion Time 0 Minute): −
- Sterility Results In 2.48 mm × 75 cm lumen ([2]; Diffusion Time 0 Minute): +
- Sterility Results In 2.48 × 100 cm lumen ([2]; Diffusion Time 0 Minute): +
- Sterility Results In Open Petri Dish ([2]; Diffusion Time 0 Minute): −
- Sterility Results In 2.48 mm × 50 cm lumen ([2]; Diffusion Time 20 Minutes): −
- Sterility Results In 2.48 mm × 75 cm lumen ([2]; Diffusion Time 20 Minutes): +
- Sterility Results In 2.48 × 100 cm lumen ([2]; Diffusion Time 20 Minutes): +
- Sterility Results In Open Petri Dish ([2]; Diffusion Time 20 Minutes): −
- Sterility Results In 2.48 mm × 50 cm lumen [3, 9]: −
- Sterility Results In 2.48 mm × 75 cm lumen [3, 9]: +
- Sterility Results In 2.48 mm × 100 cm lumen [3, 9]: +
- Sterility Results In Open Petri Dish [3, 9]: −
- Sterility Results In 2.48 mm × 50 cm lumen [3, 10]: −
- Sterility Results In 2.48 mm × 75 cm lumen [3, 10]: −
- Sterility Results In 2.48 mm × 100 cm lumen [3, 10]: +
- Sterility Results In Open Petri Dish [3, 10]: −
- Sterility Results In 2.48 mm × 50 cm lumen [3, 11]: −
- Sterility Results In 2.48 mm × 75 cm lumen [3, 11]: −
- Sterility Results In 2.48 mm × 100 cm lumen [3, 11]: −
- Sterility Results In Open Petri Dish [3, 11]: −
- Sterility Results In 2.48 mm × 50 cm lumen [3, 12]: −
- Sterility Results In 2.48 mm × 75 cm lumen [3, 12]: −
- Sterility Results In 2.48 mm × 100 cm lumen [3, 12]: −
- Sterility Results In Open Petri Dish [3, 12]: −
- Sterility Results In 2.48 mm × 50 cm lumen [3, 13]: −
- Sterility Results In 2.48 mm × 75 cm lumen [3, 13]: −
- Sterility Results In 2.48 mm × 100 cm lumen [3, 13]: −
- Sterility Results In Open Petri Dish [3, 13]: −
- Sterility Results In 2.48 mm × 50 cm lumen [3, 14]: −
- Sterility Results In 2.48 mm × 75 cm lumen [3, 14]: −
- Sterility Results In 2.48 mm × 100 cm lumen [3, 14]: −
- Sterility Results In Open Petri Dish [3, 14]: −
- Sterility Results In 2.48 mm × 50 cm lumen [3, 15]: −
- Sterility Results In 2.48 mm × 75 cm lumen [3, 15]: −
- Sterility Results In 2.48 mm × 100 cm lumen [3, 15]: +
- Sterility Results In Open Petri Dish [3, 15]: −
- Sterility Results In 2.48 mm × 50 cm lumen [3, 16]: −
- Sterility Results In 2.48 mm × 75 cm lumen [3, 16]: +
- Sterility Results In 2.48 mm × 100 cm lumen [3, 16]: +
- Sterility Results In Open Petri Dish [3, 16]: −
- Sterility Results In 2.48 mm × 50 cm lumen [4, 17]: −
- Sterility Results In 2.48 mm × 75 cm lumen [4, 17]: −
- Sterility Results In 2.48 mm × 100 cm lumen [4, 17]: +
- Sterility Results In Open Petri Dish [4, 17]: −
- Sterility Results In 2.48 mm × 50 cm lumen [4, 18]: −
- Sterility Results In 2.48 mm × 75 cm lumen [4, 18]: −
- Sterility Results In 2.48 mm × 100 cm lumen [4, 18]: −
- Sterility Results In Open Petri Dish [4, 18]: −
- Sterility Results In 2.48 mm × 50 cm lumen [5, 19]: −
- Sterility Results In 2.48 × 75 cm Lumen [5, 19]: −
- Sterility Results In 2.48 × 100 cm lumen [5, 19]: −
- Sterility Results In Open Petri Dish [5, 19]: −
- Sterility Results In 2.48 mm × 50 cm lumen [5, 20]: −
- Sterility Results In 2.48 × 75 cm Lumen [5, 20]: +
- Sterility Results In 2.48 × 100 cm lumen [5, 20]: +
- Sterility Results In Open Petri Dish [5, 20]: −
- Sterility Results In 2.48 mm × 50 cm Teflon lumen ([6]; 1 g 59% hydrogen peroxide): −
- Sterility Results In 2.48 mm × 75 cm Teflon lumen ([6]; 1 g 59% hydrogen peroxide): +
- Sterility Results In 2.48 × 100 cm Teflon lumen ([6]; 1 g 59% hydrogen peroxide): +
- Sterility Results In Open Petri Dish ([6]; 1 g 59% hydrogen peroxide): −
- Sterility Results In 2.48 mm × 50 cm Teflon lumen ([6]; 2 g 59% hydrogen peroxide): −
- Sterility Results In 2.48 mm × 75 cm Teflon lumen ([6]; 2 g 59% hydrogen peroxide): +
- Sterility Results In 2.48 × 100 cm Teflon lumen ([6]; 2 g 59% hydrogen peroxide): +
- Sterility Results In Open Petri Dish ([6]; 2 g 59% hydrogen peroxide): −
- Sterility Results In 2.48 mm × 50 cm Teflon lumen ([6]; 3 g 59% hydrogen peroxide): −
- Sterility Results In 2.48 mm × 75 cm Teflon lumen ([6]; 3 g 59% hydrogen peroxide): +
- Sterility Results In 2.48 × 100 cm Teflon lumen ([6]; 3 g 59% hydrogen peroxide): +
- Sterility Results In Open Petri Dish ([6]; 3 g 59% hydrogen peroxide): −
